Assay results from a melting point compilation (Tetko et al.; mined from patent text by program, amines drawn as free bases though some values may be those of a salt).

Row | SMILES | melting point
1 | CCCCC/C(=C\C=C\C(=S)NCCCCc1cccnc1)c1ccc(OC)cc1 | 121 to 122 °C
2 | CC(=O)NC(=O)c1cn(Cc2ccccc2)nc1OCc1ccc(OCc2nc(-c3ccco3)oc2C)cc1 | 193 to 194 °C
3 | O=C(CCCCCCNC(=O)C(=O)c1cn2c3c(cccc13)CCC2)NOC1CCCCO1 (stereo not drawn) | 140 to 142 °C
4 | COCCNC(=O)c1cc(F)cc(-c2cccc3c(F)c(Cc4cccc(C(F)(F)F)c4)sc23)c1 | 109 to 110 °C
5 | CCCCCCOc1ccc2c(COC)c(OCCCCCC)ccc2c1COC | 103 to 104 °C
6 | CCN(CC)CCCN1CCN(c2cc(-c3ccnc(NCc4cccc(OC)c4)n3)cc3ccc(OC)cc23)CC1 | 156 to 160 °C
7 | CC(C)=Cc1ccc(C(C)C(=O)O)cc1 (stereo not drawn) | 53 to 54 °C
8 | CC1c2ccccc2CN1NC(=O)c1ccc(Cl)c(S(N)(=O)=O)c1 (stereo not drawn) | 208 to 210 °C
9 | O=C(O)CC1(c2ccccc2)Oc2ccccc2O1 | 152 to 153 °C
10 | CCN(CC)C(=O)c1ccc(OCCCl)cc1 | 80 to 81 °C
11 | Cn1c(-c2ccccc2)cc(O)c(C(=O)c2ccccc2)c1=O | 149 to 151 °C
12 | COC(=O)c1ccc(C#C[Si](C)(C)C)cn1 | 45 °C
13 | O=C(O)c1c(-c2ccc(Cl)cc2)ccnc1Br | 204 to 208 °C
14 | COc1ccc(CCN2CCC(C3c4ccn(C)c4C=Cn4ncnc43)CC2)cc1 (stereo not drawn) | 140 °C
15 | CCOc1c(Nc2ccncc2)c(=O)c1=O | 120 to 125 °C
16 | CCOC(=O)c1csc2cc(O)ccc12 | 128 to 129 °C
17 | N#Cc1c(Cl)csc1N | 230 °C
18 | CCCCCCCCCCCCCCCCCC(=O)c1cc(C(=O)O)ccc1O | 170 °C
19 | CC(C)NCC(O)COc1ccc(CCOCC2CCC2)cc1 (stereo not drawn) | 62 to 63 °C
20 | CCOC(=O)C(C#N)C1NC(=O)c2sccc2-n2cccc21 (stereo not drawn) | 195 °C
21 | CC(C)C1(c2ccccc2O)C(=O)N(C)c2ccccc21 (stereo not drawn) | 172 to 174 °C
22 | Cc1ccc(C(=O)N2CCN(CCc3ccc(Cl)cc3)CC2)cc1 | 105 to 106 °C
23 | NC(=O)N1C(=O)C(=C(OC(=O)C=CC(=O)O)c2cccs2)c2cc(F)c(Cl)cc21 | 229 to 232 °C
24 | COC(=O)[C@@H]1CC[C@@H]2CN1C(=O)N2OCc1ccccc1 | 86 °C
25 | COc1nc2ccc(Cl)cc2nc1Cl | 113 to 114 °C

Row | SMILES | melting point
26 | NS(=O)(=O)c1ccc(-n2nc(C(F)(F)F)cc2-c2ccc(-c3ccco3)cc2)c(Cl)c1 | 190 °C
27 | COc1ccc2c(CC(=O)O)c(C(=O)c3ccc(Cl)cc3)[nH]c2c1 | 193 °C
28 | CCCCNS(=O)(=O)CC(O)C(O)C(CC1CCCCC1)NC(=O)c1ccccn1 (stereo not drawn) | 167 to 170 °C
29 | COC(=O)C(CNC(C)=O)C1CCC(C(C)(C)C)CC1 (stereo not drawn) | 73 to 75 °C
30 | COc1cc2c(Cl)c(C#N)cnc2cc1OS(=O)(=O)C(F)(F)F | 112 to 113 °C
31 | Nc1nc2ccc(Cl)nc2c(=O)[nH]1 | > 330 °C
32 | Cc1cccc2c(=O)[nH]c(CC3CN4CCC3CC4)nc12 (stereo not drawn) | 187 to 188 °C
33 | COc1ccccc1-n1nc(S(=O)(=O)c2ccc(Cl)cc2)c(C)c(C#N)c1=O | 175 to 178 °C
34 | O=C(Nc1cc(F)cc2c(=O)cc(C(=O)O)oc12)c1ccc2c(c1)CC(CCCc1ccccc1)O2 (stereo not drawn) | 183 to 185 °C
35 | O=C(c1ccccc1)c1c(O)c2cc(Cl)cc(Cl)c2[nH]c1=O | 258 to 259 °C
36 | N#Cc1cc(Oc2ccc(Cl)cc2)ccc1N | 116 to 118 °C
37 | CC(C#Cc1cccc(Oc2ccccc2)c1)N(O)C(N)=O (stereo not drawn) | 110 to 115 °C
38 | OCc1cnc2ccc(Cl)cc2c1O | > 300 °C
39 | CC(=O)CCN1C[C@H]2Cc3ccccc3[C@H](c3ccccc3)[C@H]2C1 (racemic) | 121 to 124 °C
40 | O=c1cc(NCCN2CCC(c3noc4cc(F)ccc34)CC2)cn[nH]1 | 97 to 99 °C
41 | O=C(O)C(c1ccccc1)n1c(=O)c(=O)[nH]c2ccccc21 (stereo not drawn) | 242 to 244 °C
42 | CCCc1nn(-c2ccc(C(F)(F)F)cn2)cc1CCCOc1cccc(C(C)(C)C(=O)O)c1 | 82 to 83 °C
43 | CCCc1nc(NC(=O)N(C)C)nc(N2CCOCC2)n1 | 110 to 111 °C
44 | CCOC(=O)C1(C)ON=C(C2(C)CC(c3ccc(OC)c(OC4CCCC4)c3)=NO2)O1 (stereo not drawn) | 139 to 140 °C
45 | CCn1nc2c(N)nc3ccccc3c2c1CCS(C)(=O)=O | 220 to 222 °C
46 | NP(N)(=O)Nc1ccccc1[N+](=O)[O-] | 200 °C
47 | CN(C)CCOC1(O)C=CC2=NC(C(=O)N3CC(CCl)c4c3ccc3ncccc43)=CC2=C1 (stereo not drawn) | 209 to 215 °C
48 | CCOC(=O)C1=C(COC(C)=O)Nc2nc(N3CCOCC3)nc(N3CCOCC3)c2C1c1cccc(Cl)c1Cl (stereo not drawn) | 161 °C
49 | COc1cc(N[C@H]2CC[C@H](NCc3ccccc3)CC2)c(Cl)cc1C(N)=O | 204 to 206 °C
50 | Cn1cc(-c2cc(-c3cnc4[nH]ccc4c3)ccn2)n(-c2ccccc2)c1=O | 264 °C

Row | SMILES | melting point
51 | COC12CC(C)(c3nnc(-c4cncc(Br)c4)o3)CN(C)C1Cc1cn(C)c3cccc2c13 (stereo not drawn) | 171 to 174 °C
52 | CCOC(=O)c1ccccc1N(CC(=O)N(C)c1ccccc1)C(=O)C(F)(F)F | 95 °C
53 | COc1ccc(-c2ccc3ccc(OC)cc3c2)cc1 | 154 °C
54 | Cc1noc([C@@H](Cc2ccccc2)NC(=O)[C@@H](Cc2ccc3ccccc3c2)NC(=O)OC(C)(C)C)n1 | 148 to 150 °C
55 | O=C(c1ccccc1)c1ccc(OCCc2c[nH]cn2)cc1 | 193 to 194 °C
56 | CC(C)(C)CNc1nc(Cl)ncc1CN=[N+]=[N-] | 133 to 136 °C
57 | COC(=O)c1cccc(-c2nc(COc3ccc(C=O)cc3)c(C)o2)c1 | 103 to 104 °C
58 | O=C(O)CN1C(=O)C(=Cc2ccncc2)SC1=S | 263 to 266 °C
59 | CCN1CCN(CCc2ccc(-c3ccc4c(Nc5cc(OC)c(Cl)cc5Cl)c(C#N)cnc4c3)cc2)CC1 | 75 to 78 °C
60 | Cc1sc2c(Br)c3ccccc3c(-c3ccc(OS(=O)(=O)c4ccc(C(=O)O)c(O)c4)c(C4CCCC4)c3)c2c1C | > 225 °C
61 | CC(SC1COC(c2cccc(C(=O)Nc3ccc(C#N)cc3)c2)OC1)C(O)(Cn1cncn1)c1ccc(F)cc1F (stereo not drawn) | 105 °C
62 | CCCCn1c(=S)sc2c(=N)n(NC(=O)c3ccco3)cnc21 | 210 °C
63 | COC(=O)C1=C(O)c2sc(C(F)(F)F)cc2S(=O)(=O)N1C | 178 to 180 °C
64 | O=P(O)(O)CCCCCCCCCCCCCCCCCCCCCCC(F)(F)C(F)(F)C(F)(F)C(F)(F)F | 106 to 108 °C
65 | CCN(c1ccc(SC)cc1[N+](=O)[O-])S(=O)(=O)c1ccc(C)cc1 | 135 to 136 °C
66 | COc1ccc(C(=O)CC(=O)c2ccc(O)cc2O)cc1OC | 263 to 265 °C
67 | COc1ccc(S(=O)(=O)C2(C(=O)O)CCCN(Cc3ccccc3)C2)cc1 (stereo not drawn) | 133 °C
68 | O=C(NCCBr)C1=C(C(=O)Nc2ccc(Cl)cc2F)CCCC1 | 165 to 166 °C
69 | CC(C)(C)c1ccc(CCC(=O)CC2CCCCC2)cc1NC(=O)CC1c2ccccc2Oc2ccccc21 | 154 to 155 °C
70 | NC(=NCC(F)(F)F)Nc1nc(CO)ns1 | 123 to 125 °C
71 | COC(=O)CCc1oc(-n2ccnc2)nc1-c1ccc(Cl)cc1 | 95 to 96 °C
72 | CNC(=O)Cc1ncc2c(n1)-c1ccc(Cl)cc1C(c1ccccc1F)=NC2 | 175 to 177 °C
73 | Cc1oc(-c2ccccc2)nc1COc1ccc(CCCC2OC(=O)NC2=O)cc1O (stereo not drawn) | 162 to 164 °C
74 | C=Cc1ccc(C(=O)Oc2ccc(S(=O)(=O)Nc3ccccc3)cc2)cc1 | 59 to 60 °C
75 | Cc1c(Br)ccc(C=NO)c1Cl | 77 to 78 °C

Row | SMILES | melting point
76 | c1ccc(C(NCc2ccc(CNC(c3ccccc3)c3ccccc3)cc2)c2ccccc2)cc1 | 92 to 94 °C
77 | CCCCc1nc(C(O)CC)c(C(N)=O)n1Cc1ccc(-c2ccccc2C(=O)O)cc1 (stereo not drawn) | > 120 °C
78 | CN(c1cccc2cc(-c3ncc(C(=O)O)s3)[nH]c12)S(=O)(=O)c1cccs1 | 258 to 260 °C
79 | COc1ccc(Cn2nc(CN3CCN(c4ccccc4OC)CC3)c3cc(OC)c(OC)cc32)cc1OC | 149 to 150 °C
80 | O=C1NC(=O)c2ccccc2/C1=C/Nc1ccc(N2CCOCC2)cc1 | 257 to 258 °C
81 | CC(C)(C)[Si](C)(C)Oc1ccc2c(ccc3c4ccc(O[Si](C)(C)C(C)(C)C)cc4oc(=O)c23)c1 | 154 to 156 °C
82 | O[C@@H]1CN=C(c2ccccc2F)O[C@H]1c1ccccc1 (racemic) | 142 °C
83 | COc1ccc(-c2nccc(N)n2)cc1 | 102 to 104 °C
84 | COC(=O)C1Cc2cc3c(cc2C(=O)CS1)OCO3 (stereo not drawn) | 165 to 166 °C
85 | CCOC(=O)/C(=N\OCCN)c1csc(NC(c2ccccc2)(c2ccccc2)c2ccccc2)n1 | 126 to 144 °C
86 | CCOc1nn(Cc2ccc(OCc3csc(-c4ccccc4)n3)nc2)cc1CCC(=O)O | 121 to 122 °C
87 | CCN(CC)c1nc(NCCCCO)nc(Nc2ccc3cc(-c4ccccc4)c(=O)oc3c2)n1 | 124 to 126 °C
88 | Cc1cnc2c(Cl)cnn2c1-c1cccc(C(F)(F)F)c1 | 195 to 197 °C
89 | COc1ccc(NC(=O)O[C@H]2COC(c3ccccc3)=N[C@@H]2c2ccccc2)cc1 (racemic) | 140 °C
90 | O=[N+]([O-])c1ccc(Sc2ncccn2)cc1 | 103 to 104 °C
91 | COc1cc2c(cc1OC)-c1ncc(C(=O)O)c(=O)n1CC2 | 264 to 266 °C
92 | O=C1c2ccc(-c3ccccc3)cc2CC1Br (stereo not drawn) | 99 to 100 °C
93 | Cc1cccc(NC(=O)NC2N=C(CC(C)C)c3cccc(C)c3N(CC(=O)C3CCCCC3)C2=O)c1 (stereo not drawn) | 152 to 155 °C
94 | COc1cc([N+](=O)[O-])c(N)cc1O | 208 °C
95 | COc1ccc(-c2cnc(N3CCc4c([nH]c5ccccc45)C3c3ccc4c(c3)OCO4)nc2)cc1OC (stereo not drawn) | 173 to 175 °C
96 | CCCCN(C)c1nccc2ccc(C(=O)N[C@@H](Cc3cc(F)cc(F)c3)[C@H](O)CNCc3cccc(CC)c3)cc12 | 120 to 121 °C
97 | O=C1OCCN1CCN1C(=O)C2(COc3cc4c(cc32)CCO4)c2ccccc21 (stereo not drawn) | 185 to 186 °C
98 | NC1=C(C(=O)c2cccs2)C2=C(CCC2)S1=O (stereo not drawn) | 133 to 134 °C
